# Like-named read-outs stand apart in the source and are kept apart here.
# How the values were obtained:
# [1] = system: HeLa cells; experiment: MTT assay within the anti-infection screening platform; format: cell-based, human; conditions: 48 hours, concentrations inhibiting HPV 16 pseudovirus
# From the text: (§1) Carrageenan was used as positive control. […] The cell survival rate and IC50 of each sample were obtained in accordance with the method stated above.
# [2] = system: HPV 16 pseudovirus; experiment: Screening for anti-infection compounds (GFP-expressing HPV 16 pseudovirus infecting HeLa cells); format: cell-based, human papilloma virus 16; conditions: for IC50: Pseudovirus, HeLa, 48 h, read-out: IC50 for inhibiting HPV 16 pseudoviruses
# Experimental: […] were co-transfected with codon-modified papillomavirus capsid genes, L1 and L2, plasmid: p16shell, and a GFP reporter plasmid, pClneo-GFP, to monitor the infectivity of the stock.
# The GFP-expressing HPV 16 pseudoviruses were prepared and harvested in accordance with the protocol provided by the National Cancer Institute (USA). Said protocol is available on line at http://home.ccr.cancer.gov/lco/production.asp which is incorporated herein by reference in its entirety.
# In the present application, the GFP-expressing HPV 16 pseudoviruses used have titers of about 4*10^8 infectious units per ml.
# HeLa cells were seeded in 96-well plates at a density of 6×10^3 cells per well. 24 hours later, 2×HPV 16 pseudoviruses of various volumes were added. The signal to background ratio of each volume of the HPV 16 pseudoviruses was illustrated in FIG. 2.
# When choosing screening platform, the infection rate should be around 20%. […] Under this dosage, the signal to background ratio is 2.0-2.5.
# as §1
# [3] = system: HeLa cells; experiment: Cytotoxicity assay (MTT assay) on HeLa cells; conditions: for IC50: Homo sapiens, HeLa; for cytotoxicity to HeLa cells compared with Doxorubicin HCl: under the corresponding conditions
# Experimental: HeLa cell line was obtained from Dr. S. S. Shen (Biomedical Engineering Research Laboratories of Industrial Technology Research Institute of Taiwan). HeLa cells are adherent cells and were propagated and maintained in Dulbecco's modified Eagle's medium (DMEM) supplemented with 10% fetal bovine serum (FBS), […] sodium bicarbonate (NaHCO3), 1 mM sodium pyruvate, and 0.1 mM non-essential amino acid.
# (§2) Cytotoxicity Assay (MTT Assay)
# The cytotoxicity of the compounds set forth herein to HeLa cells and HUVEC cells were determined by the MTT assay. The HUVEC cells were used to understand the cytotoxicity of said compounds to normal human cells. Besides, doxorubicin HCl was used as a comparative example so as to investigate the efficacy of the compounds according to the embodiments of the present invention.
# Briefly, the MTT assay comprises the following steps: • (A) Cells were seeded in 96-well plates 3 hours before treatment, wherein the density of HeLa cell is 1×10^4 cells per well and the density of HUVEC cell is 2×10^4 cells per well; • (B) Cells were then treated with various concentrations of tested samples and incubated for a predetermined period (24, 48, and 72 hours); • (C) After the predetermined periods expired, the tested samples were removed and 100 μl MTT reagent (1 mg/ml) was added to each well; • (D) The plates were incubated at 37° C. with 5% of CO2 for 5 hours; • (E) The MTT reagent was removed and 100 μl DMSO was added to each well; • (F) The optical density (O.D.) of each well was determined by ELISA reader at a wavelength of 560 nm.
# Each experiment was repeated for 3 times and the result shown in the tables herein were the mean value of the 3 repetitions. The O.D. of the vehicle control and experimental groups were recorded. The cell survival rate of each sample was calculated as follows:
# Cell survival rate(%)=O.D.control/O.D.experimental*100%
# Then, the cell survival rate was plotted against the compound concentration and the IC50 value of each compound was calculated by the GraFit data analysis software (Erithacus Software Ltd.).
# [4] = system: HUVEC cells; experiment: Cytotoxicity assay (MTT assay) on HUVEC cells; format: cell-based, human
# From the text: Human umbilical vein endothelial cells (HUVEC) were purchased from Food Industry Research and Development Institute in Hsin-Chu City, Taiwan. HUVEC cells were propagated and maintained in Medium 199 supplemented with 10% FBS, Heparin, and […].
# as §2
compound,measurement,setting,value
"O=c1cc(-c2ccccc2)oc2cc(O)c(O)c(O)c12 [Compound C, baicalein]",survival rates of HeLa cells in anti-infection screening,[1],higher than 80%
same,IC50,[2],8.2 µg/mL
"O=C(O)c1cc(O)c(O)c(O)c1 [Compound D, gallic acid]",survival rates of HeLa cells in anti-infection screening,[1],higher than 80%
same,IC50,[2],8.9 µg/mL
same,HeLa Cell Survival Rate,"[3]; 0.125 μg/ml, 24 hrs",85%
same,HeLa Cell Survival Rate,"[3]; 0.125 μg/ml, 48 hrs",96%
same,HeLa Cell Survival Rate,"[3]; 0.125 μg/ml, 72 hrs",101%
same,HeLa Cell Survival Rate,"[3]; 1.25 μg/ml, 24 hrs",84%
same,HeLa Cell Survival Rate,"[3]; 1.25 μg/ml, 48 hrs",91%
same,HeLa Cell Survival Rate,"[3]; 1.25 μg/ml, 72 hrs",103%
same,HeLa Cell Survival Rate,"[3]; 12.5 μg/ml, 24 hrs",90%
same,HeLa Cell Survival Rate,"[3]; 12.5 μg/ml, 48 hrs",82%
same,HeLa Cell Survival Rate,"[3]; 12.5 μg/ml, 72 hrs",99%
same,HeLa Cell Survival Rate,"[3]; 125 μg/ml, 24 hrs",17%
same,HeLa Cell Survival Rate,"[3]; 125 μg/ml, 48 hrs",11%
same,HeLa Cell Survival Rate,"[3]; 125 μg/ml, 72 hrs",8%
same,IC50,"[3]; 24 h, read-out: IC50 at 24 hours, HeLa",37 µg/mL
same,IC50,"[3]; 48 h, read-out: IC50 at 48 hours, HeLa",26 µg/mL
same,IC50,"[3]; 72 h, read-out: IC50 at 72 hours, HeLa",45 µg/mL
same,cytotoxicity to HeLa cells compared with Doxorubicin HCl,[3],higher cytotoxicity
Carrageenan [reference compound],IC50 for inhibiting HPV 16 pseudoviruses,"[2]; HeLa cells infected with 0.25 μl HPV 16 pseudovirus per well, 48 hours",about 0.07 μg/ml
isopsoralen [Compound A],HUVEC Cell Survival Rate,"[4]; 0.125 μg/ml, 24 hrs",103%
same,HUVEC Cell Survival Rate,"[4]; 0.125 μg/ml, 48 hrs",104%
same,HUVEC Cell Survival Rate,"[4]; 0.125 μg/ml, 72 hrs",92%
same,HUVEC Cell Survival Rate,"[4]; 1.25 μg/ml, 24 hrs",103%
same,HUVEC Cell Survival Rate,"[4]; 1.25 μg/ml, 48 hrs",96%
same,HUVEC Cell Survival Rate,"[4]; 1.25 μg/ml, 72 hrs",87%
same,HUVEC Cell Survival Rate,"[4]; 12.5 μg/ml, 24 hrs",100%
same,HUVEC Cell Survival Rate,"[4]; 12.5 μg/ml, 48 hrs",83%
same,HUVEC Cell Survival Rate,"[4]; 12.5 μg/ml, 72 hrs",80%
same,HUVEC Cell Survival Rate,"[4]; 125 μg/ml, 24 hrs",67%
same,HUVEC Cell Survival Rate,"[4]; 125 μg/ml, 48 hrs",31%
same,HUVEC Cell Survival Rate,"[4]; 125 μg/ml, 72 hrs",19%
same,"IC50 at 24 hours, HUVEC","[4]; HUVEC cells, 24 hours",>125 µg/mL
same,"IC50 at 48 hours, HUVEC","[4]; HUVEC cells, 48 hours",57 µg/mL
same,"IC50 at 72 hours, HUVEC","[4]; HUVEC cells, 72 hours",38 µg/mL
same,HeLa Cell Survival Rate,"[3]; 0.125 μg/ml, 24 hrs",91%
same,HeLa Cell Survival Rate,"[3]; 0.125 μg/ml, 48 hrs",99%
same,HeLa Cell Survival Rate,"[3]; 0.125 μg/ml, 72 hrs",98%
same,HeLa Cell Survival Rate,"[3]; 1.25 μg/ml, 24 hrs",88%
same,HeLa Cell Survival Rate,"[3]; 1.25 μg/ml, 48 hrs",75%
same,HeLa Cell Survival Rate,"[3]; 1.25 μg/ml, 72 hrs",69%
same,HeLa Cell Survival Rate,"[3]; 12.5 μg/ml, 24 hrs",70%
same,HeLa Cell Survival Rate,"[3]; 12.5 μg/ml, 48 hrs",30%
same,HeLa Cell Survival Rate,"[3]; 12.5 μg/ml, 72 hrs",10%
same,HeLa Cell Survival Rate,"[3]; 125 μg/ml, 24 hrs",18%
same,HeLa Cell Survival Rate,"[3]; 125 μg/ml, 48 hrs",11%
same,HeLa Cell Survival Rate,"[3]; 125 μg/ml, 72 hrs",7%
same,HUVEC/HeLa ratio of IC50,[3]; 24 hours,>4.6
same,HUVEC/HeLa ratio of IC50,[3]; 48 hours,11.4
same,HUVEC/HeLa ratio of IC50,[3]; 72 hours,19
same,"IC50 at 24 hours, HeLa","[3]; HeLa cells, 24 hours",27 µg/mL
same,"IC50 at 48 hours, HeLa","[3]; HeLa cells, 48 hours",5 µg/mL
same,"IC50 at 72 hours, HeLa","[3]; HeLa cells, 72 hours",2 µg/mL
same,cytotoxicity to HeLa cells compared with Doxorubicin HCl,[3],higher cytotoxicity

# Source: US20090137661A1, “PLANT DERIVED COMPOUNDS AND COMPOUND FORMULAE CONTAINING THE SAME FOR THE TREATMENT OF CERVICAL CANCER” (priority 2007, published 2009)
